Like-named read-outs stand apart in the source and are kept apart here.
Tests used:
Type in all cases: biochemical
MMP2 = target: T1, MMP2 (Homo sapiens, UniProt P08253); experiment: MMP-2 colorimetric inhibition assay (Enzo kit BML-AK408); conditions: thiopeptide substrate, absorbance 415 nm; read-out: MMP 2 IC50 class
T1 sequence (P08253 110-660): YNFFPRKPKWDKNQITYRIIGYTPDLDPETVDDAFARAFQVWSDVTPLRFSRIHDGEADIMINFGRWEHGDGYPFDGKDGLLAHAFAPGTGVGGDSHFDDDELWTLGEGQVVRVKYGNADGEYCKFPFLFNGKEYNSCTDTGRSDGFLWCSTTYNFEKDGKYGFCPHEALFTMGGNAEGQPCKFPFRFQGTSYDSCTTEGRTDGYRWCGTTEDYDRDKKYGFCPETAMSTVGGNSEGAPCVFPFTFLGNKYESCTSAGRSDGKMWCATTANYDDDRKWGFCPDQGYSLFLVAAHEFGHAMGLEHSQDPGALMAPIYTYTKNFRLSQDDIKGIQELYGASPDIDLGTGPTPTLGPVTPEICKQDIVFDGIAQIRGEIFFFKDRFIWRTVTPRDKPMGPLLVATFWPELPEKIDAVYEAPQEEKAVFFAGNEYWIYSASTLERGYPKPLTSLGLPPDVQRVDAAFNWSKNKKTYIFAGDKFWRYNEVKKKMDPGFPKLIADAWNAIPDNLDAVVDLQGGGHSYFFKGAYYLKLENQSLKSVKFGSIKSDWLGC
Method in brief: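 Cleavage of the thiopeptide Ac-PLG-[2-mercapto-4-methylpentanoyl]-LG-OC2H5 releases a sulfhydryl that reacts with DTNB, read at 415 nm per the kit protocol. IC50 values (nM) come from inhibition curves of normalized data.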

ADAM10 = target: T2, ADAM10 (Homo sapiens, UniProt O14672); experiment: SensoLyte 520 ADAM10 fluorometric activity assay (AnaSpec AS-72226)
T2 construct: purchased AnaSpec, Inc. AS-72226
T2 sequence (O14672 214-748): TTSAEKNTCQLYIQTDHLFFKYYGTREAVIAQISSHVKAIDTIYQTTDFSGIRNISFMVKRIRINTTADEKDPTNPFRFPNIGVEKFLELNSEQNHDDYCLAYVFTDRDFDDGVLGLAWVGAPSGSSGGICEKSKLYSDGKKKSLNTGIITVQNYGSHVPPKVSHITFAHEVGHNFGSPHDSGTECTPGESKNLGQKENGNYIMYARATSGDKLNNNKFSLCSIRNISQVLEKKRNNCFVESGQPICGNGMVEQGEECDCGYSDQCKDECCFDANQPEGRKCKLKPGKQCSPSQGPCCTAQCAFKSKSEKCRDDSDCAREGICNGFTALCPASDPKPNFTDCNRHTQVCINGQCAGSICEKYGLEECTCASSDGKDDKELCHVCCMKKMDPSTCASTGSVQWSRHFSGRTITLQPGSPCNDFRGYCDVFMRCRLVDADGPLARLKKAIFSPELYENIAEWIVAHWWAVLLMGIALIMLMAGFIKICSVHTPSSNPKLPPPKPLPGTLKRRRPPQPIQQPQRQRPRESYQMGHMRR
Method in brief: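 ADAM10 activity was read by cleavage of a FRET peptide substrate (5-FAM/QXL 520), run per the kit protocol, with fluorescence at 495/520 nm. IC50 values (nM) came from inhibition curves of normalized data.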

MMP9 = MMP9 (Homo sapiens, UniProt P14780); experiment: MMP-9 colorimetric inhibition assay (Enzo kit BML-AK410); conditions: thiopeptide substrate, absorbance 415 nm; read-out: MMP 9 IC50 class
Chain of MMP9 (P14780 94-707): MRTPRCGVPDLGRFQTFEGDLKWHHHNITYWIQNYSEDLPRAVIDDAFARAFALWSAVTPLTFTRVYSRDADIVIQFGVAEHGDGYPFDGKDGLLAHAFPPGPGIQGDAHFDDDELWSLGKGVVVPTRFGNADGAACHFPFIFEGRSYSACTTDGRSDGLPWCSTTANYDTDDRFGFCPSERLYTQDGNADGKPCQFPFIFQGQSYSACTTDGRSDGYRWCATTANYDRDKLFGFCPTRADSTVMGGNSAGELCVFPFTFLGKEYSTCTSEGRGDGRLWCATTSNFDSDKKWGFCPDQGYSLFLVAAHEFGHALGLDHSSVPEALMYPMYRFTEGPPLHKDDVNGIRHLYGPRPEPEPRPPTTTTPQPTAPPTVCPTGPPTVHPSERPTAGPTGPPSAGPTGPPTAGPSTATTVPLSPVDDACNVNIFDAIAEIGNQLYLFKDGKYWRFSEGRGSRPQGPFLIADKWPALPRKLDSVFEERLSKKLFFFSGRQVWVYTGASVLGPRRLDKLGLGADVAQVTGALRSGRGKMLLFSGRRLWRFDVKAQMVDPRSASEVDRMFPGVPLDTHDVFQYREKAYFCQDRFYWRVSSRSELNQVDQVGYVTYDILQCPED
Method in brief: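 Colorimetric thioester-substrate assay: hydrolysis of Ac-PLG-[2-mercapto-4-methylpentanoyl]-LG-OC2H5 frees a thiol that reacts with DTNB, read at 415 nm. Run per kit protocol. IC50 (nM) taken from inhibition curves of normalized values.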

ADAM17 (TACE) = ADAM17 (TACE) (Homo sapiens, UniProt P78536); experiment: TACE fluorometric inhibition assay (Enzo kit BML-AK310); conditions: quenched fluorogenic peptide, ex/em 320/420 nm; read-out: TACE IC50 class
Chain of ADAM17 (TACE) (P78536 215-477 limits assumed): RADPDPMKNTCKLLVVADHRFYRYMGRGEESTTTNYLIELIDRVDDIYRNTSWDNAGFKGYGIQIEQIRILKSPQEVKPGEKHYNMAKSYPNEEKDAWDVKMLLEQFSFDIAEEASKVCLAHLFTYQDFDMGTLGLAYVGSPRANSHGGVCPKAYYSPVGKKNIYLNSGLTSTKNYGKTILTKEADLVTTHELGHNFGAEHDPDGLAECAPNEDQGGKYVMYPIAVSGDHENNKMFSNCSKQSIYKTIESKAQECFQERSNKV
Method in brief: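 Kit-based TACE assay run per manufacturer's protocol, using quenched fluorogenic peptide Mca-PLAQAV-Dpa-RSSSR-NH2 whose cleavage raises Mca fluorescence. Signal read at ex/em 320/420 nm; IC50 (nM) derived from inhibition curves of normalized values.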

MMP1 = target: T3, MMP1 (Homo sapiens, UniProt P03956); experiment: MMP-1 colorimetric inhibition assay (Enzo kit BML-AK404); conditions: thiopeptide substrate, absorbance 415 nm; read-out: MMP 1 IC50 class
T3 sequence (P03956 100-269 limits assumed): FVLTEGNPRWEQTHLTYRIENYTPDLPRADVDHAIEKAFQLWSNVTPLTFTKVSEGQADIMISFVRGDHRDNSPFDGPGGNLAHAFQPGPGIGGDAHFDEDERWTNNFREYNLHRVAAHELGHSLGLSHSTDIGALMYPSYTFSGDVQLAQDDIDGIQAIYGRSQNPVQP
Method in brief: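 Colorimetric kit run per manufacturer protocol. MMP-1 cleaves a thiopeptide substrate (Ac-PLG-[2-mercapto-4-methylpentanoyl]-LG-OC2H5); released thiol reacts with DTNB, monitored at 415 nm. IC50 (nM) from inhibition curves of normalized values.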

MMP13 = target: T4, MMP13 (Homo sapiens, UniProt P45452); experiment: MMP-13 colorimetric inhibition assay (Enzo kit BML-AK412); conditions: thiopeptide substrate, absorbance 415 nm; read-out: MMP 13 IC50 class
T4 construct: purchased Enzo Life Sciences, Inc. BML-AK412
Method in brief: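 Thiopeptide chromogenic substrate (Ac-PLG-[2-mercapto-4-methylpentanoyl]-LG-OC2H5); MMP-13 hydrolysis of the thioester yields a thiol that reacts with DTNB, read at 415 nm. IC50 values (nM) derived from inhibition curves of normalized data.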

[1] = FRET peptide substrate, ex/em 495/520 nm, read-out: ADAM 10 IC50 class

COCCOC(=O)N1[C@@H]2CC[C@H]1[C@H](C(=O)NO)N(S(=O)(=O)N1CCC(Oc3ccc(F)cc3)CC1)C2 [Example 45, 2-methoxyethyl (1S,2R,5R)-3-((4-(4-fluoro-phenoxy)-piperidin-1-yl)-sulfonyl)-2-(hydroxy-carbamoyl)-3,8-diazabicyclo-[3.2.1]octane-8-carboxylate]
IC50 (MMP2): < 50 nM | IC50 (ADAM10; [1]): 1000 to 10000 nM | IC50 (MMP9): < 50 nM | IC50 (ADAM17 (TACE)): 50 to 1000 nM | IC50 (MMP1): 50 to 1000 nM | IC50 (MMP13): < 50 nM

COCCOC(=O)N1[C@@H]2CC[C@H]1[C@H](C(=O)NO)N(S(=O)(=O)N1CCC(Oc3ccc(C(F)(F)F)cc3)CC1)C2 [Example 48, 2-methoxyethyl (1S,2R,5R)-2-(hydroxy-carbamoyl)-3-((4-(4-(trifluoromethyl)phenoxy)-piperidin-1-yl)-sulfonyl)-3,8-diazabicyclo-[3.2.1]octane-8-carboxylate]
IC50 (MMP2): < 50 nM | IC50 (ADAM10): 50 to 1000 nM | IC50 (MMP9): < 50 nM | IC50 (ADAM17 (TACE)): < 50 nM | IC50 (MMP1): 1000 to 10000 nM | IC50 (MMP13): < 50 nM

CC(=O)N1[C@@H]2CC[C@H]1[C@H](C(=O)NO)N(S(=O)(=O)c1ccc(Oc3ccc(F)cc3)nc1)C2 [Example 53, (1S,2R,5R)-8-acetyl-3-((6-(4-fluorophenoxy)pyridin-3-yl)sulfonyl)-N-hydroxy-3,8-diazabicyclo[3.2.1]octane-2-carboxamide]
IC50 (MMP2): < 50 nM | IC50 (ADAM10; [1]): > 10000 nM | IC50 (MMP9): < 50 nM | IC50 (ADAM17 (TACE)): 1000 to 10000 nM | IC50 (MMP1): 50 to 1000 nM | IC50 (MMP13): < 50 nM

CC(=O)N1[C@@H]2CC[C@H]1[C@H](C(=O)NO)N(S(=O)(=O)c1ccc(Oc3ccc(OC(F)(F)F)cc3)nc1)C2 [Example 54, (1S,2R,5R)-8-acetyl-N-hydroxy-3-((6-(4-(trifluoromethoxy)-phenoxy)pyridin-3-yl)sulfonyl)-3,8-diazabicyclo[3.2.1]-octane-2-carboxamide]
IC50 (MMP2): < 50 nM | IC50 (ADAM10; [1]): > 10000 nM | IC50 (MMP9): < 50 nM | IC50 (ADAM17 (TACE)): 1000 to 10000 nM | IC50 (MMP1): 1000 to 10000 nM | IC50 (MMP13): < 50 nM

CCC(=O)N1[C@@H]2CC[C@H]1[C@H](C(=O)NO)N(S(=O)(=O)c1ccc(Oc3ccc(OC(F)(F)F)cc3)nc1)C2 [Example 55, (1S,2R,5R)-N-hydroxy-8-propionyl-3-((6-(4-(trifluoromethoxy)-phenoxy)pyridin-3-yl)sulfonyl)-3,8-diazabicyclo[3.2.1]-octane-2-carboxamide]
IC50 (MMP2): < 50 nM | IC50 (ADAM10; [1]): > 10000 nM | IC50 (MMP9): < 50 nM | IC50 (ADAM17 (TACE)): 1000 to 10000 nM | IC50 (MMP1): 1000 to 10000 nM | IC50 (MMP13): < 50 nM

CC(C)C(=O)N1[C@@H]2CC[C@H]1[C@H](C(=O)NO)N(S(=O)(=O)c1ccc(Oc3ccc(OC(F)(F)F)cc3)nc1)C2 [Example 56, (1S,2R,5R)-N-hydroxy-8-isobutyry1-3-((6-(4-(trifluoro-methoxy)phenoxy)-pyridin-3-yl)-sulfonyl)-3,8-diazabicyclo-[3.2.1]octane-2-carboxamide]
IC50 (MMP2): < 50 nM | IC50 (ADAM10; [1]): > 10000 nM | IC50 (MMP9): < 50 nM | IC50 (ADAM17 (TACE)): 1000 to 10000 nM | IC50 (MMP1): > 10000 nM | IC50 (MMP13): < 50 nM

CC(C)(C)C(=O)N1[C@@H]2CC[C@H]1[C@H](C(=O)NO)N(S(=O)(=O)c1ccc(Oc3ccc(OC(F)(F)F)cc3)nc1)C2 [Example 57, (1S,2R,5R)-N-hydroxy-8-pivaloyl-3-((6-(4-(trifluoro-methoxy)phenoxy)-pyridin-3-yl)-sulfonyl)-3,8-diazabicyclo-[3.2.1]octane-2-carboxamide]
IC50 (MMP2): < 50 nM | IC50 (ADAM10; [1]): > 10000 nM | IC50 (MMP9): < 50 nM | IC50 (ADAM17 (TACE)): 1000 to 10000 nM | IC50 (MMP1): 1000 to 10000 nM | IC50 (MMP13): < 50 nM

CC(=O)N1[C@@H]2CC[C@H]1[C@H](C(=O)NO)N(S(=O)(=O)c1ccc(Oc3ccc(OC(C)C)cc3)nc1)C2 [Example 58, (1S,2R,5R)-8-acetyl-N-hydroxy-3-((6-(4-isopropoxyphenoxy)-pyridin-3-yl)-sulfonyl)-3,8-diazabicyclo-[3.2.1]octane-2-carboxamide]
IC50 (MMP2): < 50 nM | IC50 (ADAM10; [1]): > 10000 nM | IC50 (MMP9): < 50 nM | IC50 (ADAM17 (TACE)): > 10000 nM | IC50 (MMP1): 1000 to 10000 nM | IC50 (MMP13): < 50 nM

CCC(=O)N1[C@@H]2CC[C@H]1[C@H](C(=O)NO)N(S(=O)(=O)c1ccc(Oc3ccc(OC(C)C)cc3)nc1)C2 [Example 59, (1S,2R,5R)-N-hydroxy-3-((6-(4-isopropoxyphenoxy)pyridin-3-yl)-sulfonyl)-8-propionyl-3,8-diaza-bicyclo[3.2.1]octane-2-carboxamide]
IC50 (MMP2): < 50 nM | IC50 (ADAM10; [1]): > 10000 nM | IC50 (MMP9): < 50 nM | IC50 (ADAM17 (TACE)): > 10000 nM | IC50 (MMP1): 1000 to 10000 nM | IC50 (MMP13): < 50 nM

CC(=O)N1[C@@H]2CC[C@H]1[C@H](C(=O)NO)N(S(=O)(=O)c1ccc(Oc3ccc(OCC(F)(F)F)cc3)nc1)C2 [Example 62, (1S,2R,5R)-8-acetyl-N-hydroxy-3-((6-(4-(2,2,2-trifluoro-ethoxy)phenoxy)-pyridin-3-yl)-sulfonyl)-3,8-diazabicyclo[3.2.1]-octane-2-carboxamide]
IC50 (MMP2): < 50 nM | IC50 (ADAM10; [1]): > 10000 nM | IC50 (MMP9): < 50 nM | IC50 (ADAM17 (TACE)): > 10000 nM | IC50 (MMP1): 1000 to 10000 nM | IC50 (MMP13): < 50 nM

COc1ccc(Oc2ccc(S(=O)(=O)N3C[C@H]4CC[C@@H]([C@@H]3C(=O)NO)N4C(C)=O)cn2)cc1F [Example 63, (1S,2R,5R)-8-acetyl-3-((6-(3-fluoro-4-methoxyphenoxy)-pyridin-3-yl)-sulfonyl)-N-hydroxy-3,8-diazabicyclo[3.2.1]-octane-2-carboxamide]
IC50 (MMP2): < 50 nM | IC50 (ADAM10; [1]): 1000 to 10000 nM | IC50 (MMP9): < 50 nM | IC50 (ADAM17 (TACE)): 1000 to 10000 nM | IC50 (MMP1): 1000 to 10000 nM | IC50 (MMP13): < 50 nM

CCOC(=O)N1[C@@H]2CC[C@H]1[C@H](C(=O)NO)N(S(=O)(=O)c1ccc(Oc3ccc(F)cc3)nc1)C2 [Example 65, ethyl (1S,2R,5R)-3-((6-(4-fluorophenoxy)pyridin-3-yl)sulfonyl)-2-(hydroxycarbamoyl)-3,8-diazabicyclo[3.2.1]octane-8-carboxylate]
IC50 (MMP2): < 50 nM | IC50 (ADAM10; [1]): > 10000 nM | IC50 (MMP9): < 50 nM | IC50 (ADAM17 (TACE)): 1000 to 10000 nM | IC50 (MMP1): 50 to 1000 nM | IC50 (MMP13): < 50 nM

COC(=O)N1[C@@H]2CC[C@H]1[C@H](C(=O)NO)N(S(=O)(=O)c1ccc(Oc3ccc(F)cc3)nc1)C2 [Example 66, methyl (1S,2R,5R)-3-((6-(4-fluoro-phenoxy)pyridin-3-yl)sulfonyl)-2-(hydroxycarbamoyl)-3,8-diazabicyclo-[3.2.1]octane-8-carboxylate]
IC50 (MMP2): < 50 nM | IC50 (ADAM10; [1]): > 10000 nM | IC50 (MMP9): < 50 nM | IC50 (ADAM17 (TACE)): 1000 to 10000 nM | IC50 (MMP1): 1000 to 10000 nM | IC50 (MMP13): < 50 nM
